Measured values published in patent US8343475B2, “Small cationic antimicrobial peptides” (priority 2006, dated 2013).

Key:
Assay in all cases: Chemokine induction in PBMC (capture ELISA)
Assay type in all cases: cell-based
[1] = tested on: CXCL1 (Gro-α) release by human PBMC; conditions: background (196) subtracted
Experimental: FIG. 17. Induction of CXCL1 (Gro-α) release by 7.5×10^5 human PBMC in response to treatment with 20 or 100 μg/ml of different peptides for 24 hours.
(§1) Venous blood (20 ml) from healthy volunteers was collected in Vacutainer® collection tubes containing sodium heparin as an anticoagulant (Becton Dickinson, Mississauga, ON) in accordance with UBC ethical approval and guidelines. Blood was diluted 1:1 with complete RPMI 1640 medium and separated by centrifugation over a Ficoll-Paque® Plus (Amersham Biosciences, Piscataway, N.J., USA) density gradient. White blood cells were isolated from the buffy coat, washed twice in RPMI 1640 complete medium, and the number of peripheral blood mononuclear cells (PBMC) was determined by trypan blue exclusion. PBMC (5×10^5) were seeded into 12-well tissue culture dishes (Falcon; Becton Dickinson) at 0.75 to 1×10^6 cells/ml at 37° C. in 5% CO2. The above conditions were chosen to mimic conditions for circulating blood monocytes entering tissues at the site of infection via extravasation.
(§2) Following incubation of the cells under various treatment regimens, the tissue culture supernatants were centrifuged at 1000×g for 5 min, then at 10,000×g for 2 min to obtain cell-free samples. Supernatants were aliquoted and then stored at −20° C. prior to assay for various chemokines by capture ELISA (eBioscience and BioSource International Inc., CA, USA respectively)

[2] = tested on: MCP-1 release by human PBMC; conditions: background (204) subtracted
Experimental: FIG. 15. Induction of MCP-1 release by 7.5×10^5 human PBMC in response to treatment with 20 or 100 μg/ml of different peptides for 24 hours.
as §1, §2

[3] = tested on: MCP-3 release by human PBMC; conditions: background (6) subtracted
Experimental: FIG. 16. Induction of MCP3 release by 7.5×10^5 human PBMC in response to treatment with 20 or 100 μg/ml of different peptides for 24 hours.
as §1, §2

Substance | Chemokine induction Gro-α ([1]; 20 μg/ml peptide) | Chemokine induction Gro-α ([1]; 100 μg/ml peptide) | Chemokine induction MCP-1 ([2]; 20 μg/ml peptide) | Chemokine induction MCP-1 ([2]; 100 μg/ml peptide) | Chemokine induction MCP-3 ([3]; 20 μg/ml peptide) | Chemokine induction MCP-3 ([3]; 100 μg/ml peptide)
1003 (IVWKIKRWWVGR) [compound 1003] | 65 pg/mL | 170 pg/mL | 31 pg/mL | 1361 pg/mL | 0 pg/mL | 5 pg/mL
1004 (RFWKVRVKYIRF) [compound 1004] | 55 pg/mL | 336 pg/mL | 300 pg/mL | 1680 pg/mL | 1 pg/mL | 30 pg/mL
1007 (WNRVKWIRR) [compound 1007] | 65 pg/mL | 170 pg/mL | 103 pg/mL | 247 pg/mL | 7 pg/mL | 28 pg/mL
1008 (RIKWIVRFR) [compound 1008] | 109 pg/mL | 869 pg/mL | 633 pg/mL | 1775 pg/mL | 1 pg/mL | 22 pg/mL
1009 (AIRVVRARLVRR) [compound 1009] | 230 pg/mL | 377 pg/mL | 634 pg/mL | 1093 pg/mL | 6 pg/mL | 6 pg/mL
1011 (RRWVVWRIVQRR) [compound 1011] | 46 pg/mL | 308 pg/mL | 579 pg/mL | 2282 pg/mL | 1 pg/mL | 35 pg/mL
1014 (RQVIVRRW) [compound 1014] | 6 pg/mL | 15 pg/mL | 83 pg/mL | 175 pg/mL | 0 pg/mL | 1 pg/mL
1015 (VLIRWNGKK) [compound 1015] | 42 pg/mL | 178 pg/mL | 113 pg/mL | 644 pg/mL | 0 pg/mL | 10 pg/mL
1016 (LRIRWIFKR) [compound 1016] | 26 pg/mL | 247 pg/mL | 269 pg/mL | 819 pg/mL | 1 pg/mL | 27 pg/mL
1017 (KRIVRRLVARIV) [compound 1017] | 56 pg/mL | 250 pg/mL | 585 pg/mL | 1019 pg/mL | 0 pg/mL | 0 pg/mL
1019 (IVVWRRQLVKNK) [compound 1019] | 5 pg/mL | 43 pg/mL | 27 pg/mL | 438 pg/mL | 0 pg/mL | 0 pg/mL
1021 (VRLRIRVAV) [compound 1021] | 29 pg/mL | 112 pg/mL | 158 pg/mL | 276 pg/mL | 3 pg/mL | 10 pg/mL
1022 (LRIRVIVWR) [compound 1022] | 10 pg/mL | 64 pg/mL | 52 pg/mL | 983 pg/mL | 0 pg/mL | 1 pg/mL
1023 (IRVWVLRQR) [compound 1023] | 36 pg/mL | 38 pg/mL | 250 pg/mL | 712 pg/mL | 0 pg/mL | 1 pg/mL
1024 (RIRVIVLKK) [compound 1024] | 20 pg/mL | -21 pg/mL | 285 pg/mL | 81 pg/mL | 1 pg/mL | 0 pg/mL
1025 (RRIVKKFQIVRR) [compound 1025] | -3 pg/mL | 32 pg/mL | 109 pg/mL | 284 pg/mL | 1 pg/mL | 3 pg/mL
1027 (KKQVSRVKVWRK) [compound 1027] | 8 pg/mL | 204 pg/mL | 54 pg/mL | 1466 pg/mL | 0 pg/mL | 14 pg/mL
1029 (KQFRIRVRV) [compound 1029] | 49 pg/mL | 60 pg/mL | 296 pg/mL | 205 pg/mL | 3 pg/mL | 3 pg/mL
1034 (KQFRNRLRIVKK) [compound 1034] | 60 pg/mL | 61 pg/mL | 434 pg/mL | 796 pg/mL | 0 pg/mL | 4 pg/mL
1036 (VQFRIRVIVIRK) [compound 1036] | 51 pg/mL | 137 pg/mL | 601 pg/mL | 968 pg/mL | 1 pg/mL | 39 pg/mL
